# Measured values published in ChEMBL document CHEMBL1156915, “Synthesis of new thienyl ring containing HIV-1 protease inhibitors: promising preliminary pharmacological evaluation against recombinant HIV-1 proteases” (J Med Chem, 2010).
# Experiments:
# Protease = Protease (Human immunodeficiency virus 1, UniProt Q9YQ12); assay: Inhibition of recombinant wild type HIV1 protease assessed as hydrolysis of fluorogenic substrate
# [1] = biological target: Protease (Human immunodeficiency virus 1) (UniProt Q9YQ12); assay: Inhibition of recombinant HIV1 protease assessed as residual activity at 10 nM by fluorogenic substrate assay; values are per cent of control
# Chain of Protease (Human immunodeficiency virus 1) (Q9YQ12 as listed by the source): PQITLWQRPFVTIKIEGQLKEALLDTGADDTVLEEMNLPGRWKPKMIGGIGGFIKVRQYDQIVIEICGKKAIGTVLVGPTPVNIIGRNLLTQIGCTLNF
# [2] = biological target: Protease (Human immunodeficiency virus 1) (UniProt Q9YQ12); assay: Inhibition of recombinant wild type HIV1 protease assessed as residual activity at 1 nM by fluorogenic substrate assay; values are per cent of control
# [3] = system: Human immunodeficiency virus type 1 protease (Human immunodeficiency virus 1), Q72874 [V32I]; assay: Inhibition of recombinant HIV1 protease V32I mutant assessed as residual activity at 1 nM by fluorogenic substrate assay; values are per cent of control
# [4] = system: Human immunodeficiency virus type 1 protease (Human immunodeficiency virus 1), Q72874 [V82A]; assay: Inhibition of recombinant HIV1 protease V82A mutant assessed as residual activity at 1 nM by fluorogenic substrate assay; values are per cent of control
# [5] = system: Human immunodeficiency virus type 1 protease (Human immunodeficiency virus 1), Q72874 [V32I]; assay: Inhibition of recombinant HIV1 protease V32I mutant assessed as residual activity at 10 nM by fluorogenic substrate assay; values are per cent of control
# Chain of Protease (Q9YQ12 whole entry): as the sequence (Q9YQ12 as listed by the source) above
SMILES,IC50 (Protease),further results
Cc1c(O)cccc1C(=O)N[C@@H](Cc1cc2ccccc2s1)[C@H](O)CN1C[C@H]2CCCC[C@H]2C[C@H]1C(=O)NC(C)(C)C,15 nM,–
Cc1c(O)cccc1C(=O)N[C@@H](c1cccs1)[C@H](O)CN1C[C@H]2CCCC[C@H]2C[C@H]1C(=O)NC(C)(C)C,30000 nM,–
Cc1c(O)cccc1C(=O)N[C@@H](Cc1cccs1)[C@H](O)CN1C[C@H]2CCCC[C@H]2C[C@H]1C(=O)NC(C)(C)C,2.9 nM,residual activity [1]: 5%; residual activity [2]: 34%; residual activity [3]: 97%; residual activity [4]: 60%; residual activity [5]: 32%
"CC(C)(C)NC(=O)[C@@H]1C[C@@H]2CCCC[C@@H]2CN1C[C@@H](O)[C@H](Cc1cc2ccccc2s1)NC(=O)C(CC(N)=O)NC(=O)c1ccc2ccccc2n1 (single isomer, unassigned)",0.6 nM,residual activity [2]: 53%; residual activity [4]: 37%
"CC(C)(C)NC(=O)[C@@H]1C[C@@H]2CCCC[C@@H]2CN1C[C@@H](O)[C@H](Cc1cccs1)NC(=O)C(CC(N)=O)NC(=O)c1ccc2ccccc2n1 (single isomer, unassigned)",21 nM,–
"CC(C)(C)NC(=O)[C@@H]1C[C@@H]2CCCC[C@@H]2CN1C[C@@H](O)[C@H](Cc1cc(-c2ccccc2)cs1)NC(=O)C(CC(N)=O)NC(=O)c1ccc2ccccc2n1 (single isomer, unassigned)",1.2 nM,–
Cc1c(O)cccc1C(=O)N[C@@H](CSc1ccccc1)[C@H](O)CN1C[C@H]2CCCC[C@H]2C[C@H]1C(=O)NC(C)(C)C,1.9 nM,–
CC(C)(C)NC(=O)[C@@H]1C[C@@H]2CCCC[C@@H]2CN1C[C@@H](O)[C@@H](NC(=O)[C@H](CC(N)=O)NC(=O)c1ccc2ccccc2n1)c1cccs1,5000 nM,–
CC(C)(C)NC(=O)[C@@H]1C[C@@H]2CCCC[C@@H]2CN1C[C@@H](O)[C@@H](NC(=O)[C@H](CC(N)=O)NC(=O)c1ccc2ccccc2n1)c1cc(-c2ccccc2)cs1,1500 nM,–
Cc1c(O)cccc1C(=O)N[C@@H](Cc1cc(-c2ccccc2)cs1)[C@H](O)CN1C[C@H]2CCCC[C@H]2C[C@H]1C(=O)NC(C)(C)C,6 nM,–
Cc1c(O)cccc1C(=O)N[C@@H](c1cc(-c2ccccc2)cs1)[C@H](O)CN1C[C@H]2CCCC[C@H]2C[C@H]1C(=O)NC(C)(C)C,4000 nM,–
